Patent publication US20120135094A1, “OREGANO AND MINT ANTI-INFLAMMATORY COMPOSITIONS AND METHODS” (RUTGERS, THE STATE UNIVERSITY OF NEW JERSEY, priority 2009, published 2012)

Tests used:
Format in all cases: cell-based, murine
[1] = system: iNOS protein in RAW 264.7 cells; test: Western Blotting of LPS-induced iNOS protein level; settings: test compounds 10 and 20 μg/mL, 24 h
Method: (§1) FIG. 5 illustrates effects of rosmarinic acid (RosA), oleanolic acid (OA), ursolic acid (UA) and indomethacin on LPS-induced iNOS and COX-2 protein levels in RAW 264.7 cells. The cells were treated with test compounds (10 and 20 μg/mL) for 24 h. Equal amounts of total proteins (50 μg) were subjected to 10% SDS-PAGE. The expression of iNOS, COX-2 and β-actin protein was detected by Western Blot using specific antibodies. Quantification of iNOS and COX-2 protein expression was performed by densitometric analysis of the immunoblot. The values below the figure represent the relative intensity in protein expression of the bands normalized to β-actin.
(§2) RAW 264.7 cells, derived from murine macrophages, were procured from the American Type Culture Collection (Rockville, Md.). The cells were cultured in RPMI-1640 (without phenol red) supplemented with 10% endotoxin-free, heat-inactivated fetal calf serum (GIBCO, Grand Island, N.Y.), 100 units/mL penicillin, and […] streptomycin. When the RAW 264.7 cells reached a density of 2-3×10^6 cells/mL, they were activated by incubation in the medium containing E. coli LPS (lipopolysaccharide, 100 ng/mL). Various concentrations of test compounds dissolved in DMSO (dimethylsulfoxide) were combined together with LPS. The cells were treated with 0.05% DMSO as vehicle control.
(§3) The total proteins, isolated from cells after treatment with test compounds for 24 h, were extracted via addition of 200 μL of gold lysis buffer (50 mM Tris-HCl, pH 7.4; 1 mM NaF; 150 mM NaCl; 1 mM EGTA; 1 mM phenylmethanesulfonyl fluoride; 1% NP-40; and 10 μg/mL leupeptin) to the cell pellets on ice for 30 min, followed by centrifugation for 30 min at 4° C. The cytosolic fraction (supernatant) proteins were measured by Bio-Rad Protein Assay (Bio-Rad Laboratories, Munich, Germany). The samples (50 μg of proteins) were mixed with 5-fold sample buffer containing 0.3 M Tris-HCl (pH 6.8), 25% 2-mercaptoethanol, 12% sodium dodecyl sulfate (SDS), 25 mM EDTA, 20% glycerol, and 0.1% bromophenol blue. […]

[2] = system: COX-2 protein in RAW 264.7 cells; test: Western Blotting of LPS-induced COX-2 protein level; settings: test compounds 10 and 20 μg/mL, 24 h
Method: as §1, §2, §3

[3] = system: LPS-induced nitrite production in RAW 264.7 macrophages; test: LPS-induced nitrite production assay (Griess reaction); settings: concentration range of 10-100 μg/mL, dose-dependently; LPS 100 ng/mL, 24 h
Method: FIG. 4 illustrates anti-inflammatory effect of rosmarinic acid (RosA), ursolic acid (UA) and oleanolic acid (OA) on LPS-induced nitrite production in RAW 264.7 macrophages. The cells were treated with 100 ng/mL of LPS only or with different concentrations of test compounds for 24 h. At the end of incubation time, 100 μL of the culture medium was collected for nitrite assay. The values are expressed as means±standard error of triplicate tests.
as §2, with “Various concentrations of test compounds dissolved in DMSO (dimethylsulfoxide) were combined together with LPS. The cells were treated with 0.05% DMSO as vehicle control.” left out
The RAW 264.7 cells were treated with various compounds and LPS or LPS only. The supernatants were harvested and the amount of nitrite, an indicator of NO synthesis, was measured using the Griess reaction. […] After incubation at room temperature for 10 min, absorbance at 570 nm was measured with the ELISA reader (Thermo Labsystems, Multiskan Ascent, Finland).

Row | Structure (SMILES) | iNOS protein expression [1] | COX-2 protein expression [2] | suppression of NO generation [3]
1 | CC1(C)CC[C@]2(C(=O)O)CC[C@]3(C)C(=CC[C@@H]4[C@@]5(C)CC[C@H](O)C(C)(C)[C@@H]5CC[C@]43C)[C@@H]2C1 [oleanolic acid] | reduced expression of iNOS protein | suppressed COX-2 protein expression | 
2 | O=C(/C=C/c1ccc(O)c(O)c1)O[C@H](Cc1ccc(O)c(O)c1)C(=O)O [rosmarinic acid] | reduced expression of iNOS protein | suppressed COX-2 protein expression | 19-100%
3 | C[C@H]1[C@H](C)CC[C@]2(C(=O)O)CC[C@]3(C)C(=CC[C@@H]4[C@@]5(C)CC[C@H](O)C(C)(C)[C@@H]5CC[C@]43C)[C@H]12 [ursolic acid] | reduced expression of iNOS protein | suppressed COX-2 protein expression | 
